Assay results taken from US12527794B2, “Compositions, formulations, and methods for hair treatment” (Oddity Labs, LLC, priority 2021, dated 2026).

Key:
TK.6 lymphoblasts = assay: TK.6 micronucleus assay; type: cell-based
Description: (§1) The safety/toxicology profiles of a compound or salt of the present disclosure was evaluated via a series of in vitro genotoxicity assays, including the SOS-chromotest to determine bacterial genotoxicity, and the TK.6 micronucleus assay to determine chromosomal damage and forward mutations. Standard reactive oxygen species (ROS) and caspase 3/7 assay were conducted to determine general cellular toxicity. Moreover, a series of sensitization tests were conducted to predict any potential skin sensitivity. These include the direct peptide reactivity assay to evaluate haptenization, the KeratinoSens reporter assay to determine potential sensitivity via the activation of a cytoprotective pathway, and an immunological assay using human immature monocyte-derived dendritic cells to evaluate any potential immunogenicity.
TK.6 lymphoblasts are a well-studied cell line commonly used for gene mutation analyses. They are heterozygous for the thymidine kinase gene (TK) and enable the detection of forward mutations and chromosomal damage, which manifests as micronuclei and are detectable via flow cytometry.
TK.6 cells were dosed with the exemplary compounds or a vehicle control (0.1% v/v DMSO) and cultured with or without S9 metabolic activation for 24 hr. […] Methyl methanesulfonate, a known genotoxic, alkylating agent was used as a positive control for micronuclei detection.
The micronucleus assay was also performed to determine if the compounds are genotoxic by evaluating the presence of micronuclei. […] I-17 elicited genotoxicity at >3.125 μg/mL.

bacteria = assay: SOS chromotest (β-galactosidase activity); type: cell-based; settings: varying concentrations; 4-NQ as known genotoxin
Description: The SOS chromotest is a well-established bacteria-based test for genotoxicity.
as §1

HepG2 cells = assay: Caspase 3/7 activity in HepG2 cells; type: cell-based; settings: HepG2, >2-log concentration range
Description: (§2) Cells were treated with either the exemplary compounds or vehicle control containing correspondingly % v/v-matched amounts of DMSO spanning a >2-log concentration range. Data represents mean±s.d. and representative of at least 2 experimental replicates.
as §2, with “HepG2 cells are an immortalized liver cell line commonly used to study apoptosis induced by small molecules. Cells” for “Cells”

Nrf2-ARE pathway = assay: KeratinoSens Nrf2-ARE luciferase reporter assay; type: cell-based; settings: cinnamic aldehyde as known sensitizing compound
Description: The Nrf2-ARE pathway is a master regulator of cytoprotective responses to oxidative stress, and is an early indicator of skin sensitization. Nrf2 (nuclear factor erythroid 2-related factor) is a transcription factor that binds to antioxidant responsive elements (ARE). By fusing ARE to the light-producing luciferase gene, a KeratinoSens Nrf2-ARE reporter assay was performed whereby luciferase signal is directly correlated to Nrf2-ARE pathway activation.
Normalized ARE-luciferase activity was measured using a known sensitizing compound (cinnamic aldehyde) and exemplary compounds.

[1] = test system: human hair follicle dermal papilla cells (hFDPC); assay: Human follicle dermal papilla cell (hFDPC) proliferation, cell viability assay; type: cell-based; settings: hFDPCs supplemented with BIO, BMP-2 and FGFβ
Description: The ability of a compound or salt of the present disclosure to increase proliferation of human hair follicle dermal papilla cells (hFDPC) was tested using a cell viability assay, such as the Promega CellTiter-Glo® Luminescent Cell Viability Assay, MTT cell proliferation assay (ATCC® 30-1010K) or cell counting. […] In Table 8, A represents less than 20% of increased proliferation of hFDPCs, B represents 20-40%, and C represents larger than 40% of increased proliferation of hFDPCs. For this assay, hFDPCs were cultured on tissue culture-treated plastic and supplemented with 6-bromoindirubin-39-Oxime (BIO), recombinant bone morphogenetic protein-2 (BMP-2), and basic fibroblast growth factor (FGFβ), whose combination was previously found to preserve in situ dermal papilla gene signatures.

[2] = test system: follicle dermal papilla cells; assay: Reactive oxygen species (ROS) activity in follicle dermal papilla cells; type: cell-based; settings: 5 μg/mL, 24 hr, relative to vehicle control 0.1% v/v DMSO
Description: Normalized reactive oxygen species (ROS) activity in follicle dermal papilla cells were analyzed after treatment with 5 μg/mL exemplary compounds relative to vehicle control (0.1% v/v DMSO) after 24 hr. The increase in ROS levels is harmful on cell mhemeostasis, structures, and functions and results in oxidative stress.

female subjects = assay: Clinical consumer perception study; type: in vivo, human; settings: 0.02% v/v water-based formula every 2 days, 6 weeks, 32 subjects completed
Description: Photographs were taken after 6 weeks. Subjects were female and ranged in age from 27-65 years. Subjects used a simple, water-based formula containing an exemplary compound (at 0.02% v/v) every 2 days in the morning or night on dry or towel-dried hair. Approximately 2 mL was applied directly to the hairline. No randomization was required for the study and subjects were blinded to the name of the test material.
The clinical test was performed by Eurofins|CRL, Inc. The test followed established, standardized procedures for clinical testing designed to ensure the well-being of clinical study subjects and the generation of reliable study data. Subjects were female and ranged in age from 27-65 years. Subjects used a simple, water-based formula containing a exemplary compound, VII-3 (at 0.02% v/v) every 2 days in the morning or night on dry or towel-dried hair. Approximately 2 mL was applied directly to the hairline. No randomization was required for the study and subjects were blinded to the name of the test material.
Photographs of subjects' hair were taken 6 weeks after the treatment with the representative compounds (FIG. 6). Subjects were female and ranged in age from 27-65 years. Subjects used a simple, water-based formula containing an exemplary compound VII-3 (at 0.02% v/v) every 2 days in the morning or night on dry or towel-dried hair. […]

[3] = test system: Human follicle papilla cells; assay: Functional stability across pH and temperature (follicle papilla cell proliferation); type: cell-based; settings: pre-treated 7 days in pH-adjusted water at varying temperatures; cells dosed 5 μg/mL, 48 hr
Description: FIGS. 7A and 7B show normalized proliferation follicle papilla cell proliferation after 48 hr following treatment with the exemplary compound (VII-3) pre-treated across a range of pH conditions (FIG. 7A) and temperature conditions (FIG. 7B). Data represents mean±s.d. and representative of n=2 donors.
An exemplary compound (VII-3) was prepared in various solvents (DMSO; dimethyl sulfoxide, DMI; dimethyl isosorbide, or a 1:1 mixture of dimethyl isosorbide and ethanol), the diluted in pH-adjusted water and left at varying temperatures for 7 days. Human follicle papilla cells were dosed at 5 μg/mL with the exemplary compound and further supplemented with 6-bromoindirubin-39-Oxime (BIO), recombinant bone morphogenetic protein-2 (BMP-2), and basic fibroblast growth factor (FGFβ), whose combination was previously found to preserve in vivo dermal papilla gene signatures. Normalized proliferation follicle papilla cell proliferation was analyzed after 48 hr following the treatment with the exemplary compound pre-treated across a range of pH conditions (FIG. 7A) and temperature conditions (FIG. 7B). Data represents mean±s.d. and representative of n=2 donors.

COC(=O)c1c(S(C)(=O)=O)[nH]c(-c2ccccc2)nc1=O [VII-1]
micronuclei formation / genotoxic effect in TK.6 cells (TK.6 lymphoblasts): do not promote any micronuclei formation
genotoxic effects, normalized β-galactosidase activity (bacteria): did not exhibit any genotoxic effects
normalized caspase 3/7 activity (HepG2 cells): did not exhibit any caspase activation
sensitizing potential, normalized ARE-luciferase activity (Nrf2-ARE pathway): exhibited sensitizing potential

C=CCc1cc(/C=C2\C(=O)NC(=S)N(c3ccccc3OC)C2=O)cc(OCC)c1O [Compound I-18, 4,6(1H,5H)-Pyrimidinedione, 5-[[3-ethoxy-4-hydroxy-5-(2-propen-1-yl)phenyl]methylene]dihydro-1-(2-methoxyphenyl)-2-thioxo-]
Percent Increase Proliferation of hFDPCs (%) [1]: B (B represents 20-40%)
normalized ROS level [2]: higher than other compounds

CCC(=O)N1CCN(c2nnc(-c3ccc(C)cc3)c3ccccc23)CC1 [II-4, 1-Propanone, 1-[4-[4-(4-methylphenyl)-1-phthalazinyl]-1-piperazinyl]-]
micronuclei formation / genotoxic effect in TK.6 cells (TK.6 lymphoblasts): do not promote any micronuclei formation
genotoxic effects, normalized β-galactosidase activity (bacteria): did not exhibit any genotoxic effects
normalized caspase 3/7 activity (HepG2 cells): did not exhibit any caspase activation

CSc1nc(-c2ccco2)nn1S(C)(=O)=O [VII-3, 1H-1,2,4-Triazole, 3-(2-furanyl)-1-(methylsulfonyl)-5-(methylthio)-]
genotoxic effects, normalized β-galactosidase activity (bacteria): did not exhibit any genotoxic effects
normalized caspase 3/7 activity (HepG2 cells): did not exhibit any caspase activation
Adverse effects (female subjects): 0/32 (0%)
functional stability (normalized follicle papilla cell proliferation after pre-treatment) [3]: functionally stable across physiologically-relevant pH and temperature ranges
